The text below walks through data of PubChem BioAssay (NCI).

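Dose response: 5 concentrations. Exposure: 48 h. Format: 96-well plates. Endpoint: linear interpolation; highest concentration if not reached. At the GI50, growth is halved. The concentration for full growth arrest is given as TGI.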 Bounds are passed on as bounds.

Test systems include M14 melanoma; SK-MEL-28 melanoma; OVCAR-8 ovarian; HL-60(TB) leukemia; RXF 393 renal; SK-MEL-5 melanoma; MALME-3M melanoma; HT29 colon; OVCAR-5 ovarian; NCI/ADR-RES ovarian.
What all share (assay): DTP human tumour cell line panel, 48 h

As a reminder, the TGI is the concentration giving total growth inhibition. A low value points to greater sensitivity of the cells. For the molecule `CC(Oc1ccc2c(-c3ccc(Cl)cc3)cc(=O)oc2c1)C(=O)O` (stereo unspecified), the TGI in the test on M14 melanoma, with SK-MEL-28 melanoma, in the test on OVCAR-8 ovarian, with HL-60(TB) leukemia, with RXF 393 renal and with SK-MEL-5 melanoma was over 100 µM throughout. Also, the TGI with MALME-3M melanoma and in the test on HT29 colon was over 100 µM throughout.
Consider `CC(C)(C)C(=O)N1C(C(=O)O)Cc2ccccc2[C@@H]1Cc1ccccc1` (stereo partly specified), for which the TGI with M14 melanoma, with SK-MEL-28 melanoma, in the test on OVCAR-8 ovarian, with OVCAR-5 ovarian, with HL-60(TB) leukemia and in the test on RXF 393 renal was over 100 µM in each case. For the same molecule, the TGI with SK-MEL-5 melanoma, with MALME-3M melanoma and in the test with HT29 colon was over 100 µM in each case.
With `COC(=O)CCC(=O)Nc1ccc(Cl)cc1C`, the TGI in the test on M14 melanoma was over 100 µM; in the test with SK-MEL-28 melanoma it was over 100 µM; in the test with OVCAR-8 ovarian it was over 100 µM; in the test on OVCAR-5 ovarian, over 100 µM; in the test with HL-60(TB) leukemia, 13.6 µM; in the test with RXF 393 renal, over 100 µM. Further, the TGI with SK-MEL-5 melanoma, with MALME-3M melanoma and in the test with HT29 colon was over 100 µM throughout.
On to `COc1ccc(/C=C/c2cc(OC)c(OC(C)=O)c(OC)c2)cc1`, for which the TGI in the test on M14 melanoma is over 100 µM; with SK-MEL-28 melanoma it was 25.3 µM; in the test with OVCAR-8 ovarian, over 100 µM; in the test with OVCAR-5 ovarian, 59 µM; in the test with MALME-3M melanoma it was 88.1 µM; with HT29 colon, over 100 µM.
Usually GI50 stands for the concentration that inhibits growth by half. On to `CCN(CC)CCN(CC)CC.CCN(CC)CCN(CC)CC.[Cu+2].[Cu+2].[O-][Cl+3]([O-])([O-])[O-].[OH3+].[OH3+]`, for which the GI50 was over 100 µM with M14 melanoma; 22.1 µM with SK-MEL-28 melanoma; over 100 µM in the test on OVCAR-8 ovarian; 30.8 µM with HL-60(TB) leukemia; 15.6 µM in the test on SK-MEL-5 melanoma; over 100 µM with MALME-3M melanoma. For the same molecule, the GI50 with HT29 colon is 25.6 µM. The TGI in the test with M14 melanoma is over 100 µM; in the test on SK-MEL-28 melanoma, 45.5 µM; in the test on OVCAR-8 ovarian it was over 100 µM; in the test with HL-60(TB) leukemia it was over 100 µM; with SK-MEL-5 melanoma, 29.5 µM; with MALME-3M melanoma it was over 100 µM. In addition, the TGI in the test on HT29 colon amounted to 87.9 µM.
Take `CSC(=O)C[C@@]12O[C@@H]([C@@H](C)C3CCC4[C@@H]5C(O)CC6=CC(=O)C=C[C@]6(C)C5CC[C@@]43C)C[C@](C)(O1)C(C)(C)O2` (stereo partly specified): the TGI in the test with M14 melanoma amounted to 33.3 µM; in the test with SK-MEL-28 melanoma it was 32.1 µM; with OVCAR-8 ovarian, 37.9 µM; with OVCAR-5 ovarian, 31.8 µM; in the test with HL-60(TB) leukemia it was 38.2 µM; in the test with RXF 393 renal, 24.4 µM. Also, the TGI was determined as 43.5 µM with MALME-3M melanoma and 27.6 µM in the test with HT29 colon.
Regarding `Nc1ncc(-c2ccc3ncnc(Nc4cccc(Cl)c4)c3c2)cn1`, the GI50 in the test with OVCAR-8 ovarian was 2.87 µM; in the test on HL-60(TB) leukemia, 0.525 µM; in the test on SK-MEL-5 melanoma it was 2.31 µM; in the test with HT29 colon, 1.75 µM. The TGI in the test with OVCAR-8 ovarian, with SK-MEL-5 melanoma and in the test on HT29 colon was over 100 µM in each case.
On to `Cc1ccc(NCC2(/N=C/c3ccccc3)OC(CO)C(O)C2O)cc1` (stereo unspecified), for which the TGI in the test on M14 melanoma is over 100 µM; in the test on SK-MEL-28 melanoma, over 100 µM; in the test with OVCAR-8 ovarian, over 100 µM; in the test with OVCAR-5 ovarian, over 100 µM; in the test on HL-60(TB) leukemia it was 64.7 µM; in the test on SK-MEL-5 melanoma it was over 100 µM. In addition, the TGI in the test on MALME-3M melanoma and in the test on HT29 colon was over 100 µM in each case.
In the case of `CN(C)c1ccc(/C=c2\sc3nnc(-c4ccco4)n3c2=O)cc1`, the TGI in the test on M14 melanoma, with SK-MEL-28 melanoma, in the test with OVCAR-8 ovarian, in the test with OVCAR-5 ovarian, with HL-60(TB) leukemia and with RXF 393 renal was over 100 µM in each case. Moreover, the TGI in the test with SK-MEL-5 melanoma and in the test with MALME-3M melanoma was over 100 µM throughout.
Consider `Cc1ccc(/C=C/C(=O)c2ccc(Cl)c(Cl)c2)cc1`, for which the TGI with M14 melanoma, with SK-MEL-28 melanoma, with OVCAR-8 ovarian, with OVCAR-5 ovarian, in the test with HL-60(TB) leukemia and with RXF 393 renal was over 100 µM each time. The TGI with SK-MEL-5 melanoma, in the test on MALME-3M melanoma and in the test on HT29 colon was over 100 µM in each case.
`[N-]=[N+]=NCN1C(=O)C2C3C=CC(C2C1=O)C1C2C(=O)N(CN=[N+]=[N-])C(=O)C2C31` (stereo unspecified): the TGI in the test on M14 melanoma, with SK-MEL-28 melanoma, in the test on OVCAR-8 ovarian, in the test on SK-MEL-5 melanoma, with HT29 colon and in the test with NCI/ADR-RES ovarian was over 100 µM each time.
Turning to `CCC[CH2][Sn](=[O])[CH2]CCC`, the GI50 in the test on M14 melanoma is over 50 µM; with SK-MEL-28 melanoma it was over 50 µM; with OVCAR-8 ovarian it was over 50 µM; with OVCAR-5 ovarian, over 30.3 µM; in the test with HL-60(TB) leukemia it was over 36.2 µM; in the test on RXF 393 renal, 47.7 µM. Besides, the GI50 with SK-MEL-5 melanoma, in the test with MALME-3M melanoma and in the test on HT29 colon was over 50 µM throughout. The TGI in the test on M14 melanoma, in the test with SK-MEL-28 melanoma, with OVCAR-8 ovarian, in the test with OVCAR-5 ovarian, in the test with HL-60(TB) leukemia and in the test with RXF 393 renal was over 50 µM throughout. In addition, the TGI with SK-MEL-5 melanoma, in the test on MALME-3M melanoma and in the test on HT29 colon was over 50 µM throughout.
With `CCCCCCCCCCCCSC(=S)c1c(C)[nH]n(-c2ccccc2)c1=O`, the TGI is over 50 µM in the test with M14 melanoma; over 50 µM with SK-MEL-28 melanoma; over 50 µM in the test with OVCAR-8 ovarian; over 50 µM in the test on OVCAR-5 ovarian; 24.4 µM in the test on HL-60(TB) leukemia; 24.5 µM with RXF 393 renal. Also, the TGI in the test with SK-MEL-5 melanoma was 15.9 µM; in the test with MALME-3M melanoma it was 39.8 µM; in the test with HT29 colon, 36.6 µM.
As for `CC(=O)OC12C(C)=C(C)C(=O)N1c1ccccc1N2C(C)=O` (stereo unspecified), the TGI in the test with M14 melanoma, in the test with SK-MEL-28 melanoma, with OVCAR-8 ovarian, with OVCAR-5 ovarian, with HL-60(TB) leukemia and in the test with RXF 393 renal was over 100 µM each time. In addition, the TGI in the test on SK-MEL-5 melanoma and with HT29 colon was over 100 µM in each case.
Consider `NC(=S)N1N=C2CCCCCC[C@@H]2[C@H]1c1ccccc1`, for which the TGI with M14 melanoma was over 100 µM; in the test on SK-MEL-28 melanoma, over 100 µM; in the test on OVCAR-8 ovarian, over 100 µM; with OVCAR-5 ovarian it was over 100 µM; in the test with HL-60(TB) leukemia it was 51.7 µM; with RXF 393 renal, over 100 µM. Moreover, the TGI in the test on SK-MEL-5 melanoma, in the test with MALME-3M melanoma and with HT29 colon was over 100 µM each time.
